Results: article PMC13492380, “Dissecting Structural and Functional Determinants of Microtubules Stabilization through Guided Chemical Modulation” (Journal of Medicinal Chemistry, 2026)

Tested on: Tau441 interaction with MTs in axon-like processes of neuronally differentiated PC12 cells
Assay: Fluorescence decay after photoactivation (FDAP) of PAGFP-Tau441
Assay type: cell-based, human
Source text: Building on the role of Tau dynamics in axonal MT function, , we next used Tau as a structural sensitive neuronal MAP to assess whether drug-imposed MT lattice states alter MAP recognition. To this end, we initially performed fluorescence decay after photoactivation (FDAP) experiments to assess potential changes in the interaction of the longest human Central Nervous System Tau isoform (Tau441) with MTs in axon-like processes of model neurons. We tagged Tau at the N-terminus with photoactivatable GFP (PAGFP) and expressed it exogenously in PC12 cells differentiated into a neuronal phenotype (Figure A). After locally activating a subset of labeled Tau molecules in the middle of a process, we monitored FDAP over time in the activated region (Figure B). Tau gradually dissipated from the activation site.
To quantify changes in Tau’s effective diffusion constant (D eff) as a result of its dynamic interactions with MTs, we measured FDAP at various compound concentrations and fitted the resulting decay curves using a previously established reaction-diffusion model. […] Remarkably, the GDP-like MTs stabilized by compound 1b remain largely neutral with respect to Tau-MT interactions.
PC12 cells (originally obtained from J.A. Wagner, Harvard Medical School) were cultured in serum-DMEM (DMEM supplemented with 10% fetal bovine serum and antibiotics (100 U/ml penicillin and 100 μg/mL streptomycin)) at 37 °C with 10% CO2 in a humidified incubator. For live cell imaging, cells were transfected with the respective pRc/CMV expression vector using Lipofectamine 2000 (Thermo-Fisher Scientific, USA) as previously described. FDAP experiments were performed essentially as previously described. Briefly, cells expressing PAGFP-tagged Tau441 were plated on 35 mm glass-bottom culture dishes (MatTek, USA), transfected, and neuronally differentiated by medium exchange to serum-reduced DMEM containing 100 ng/mL 7S mouse NGF. After 3 days, the medium was exchanged to serum-reduced DMEM without phenol red with NGF, and the respective compound (or DMSO for carrier control) were added at the desired concentration. After 20 h, live cell imaging was performed using a laser scanning microscope (Nikon Eclipse Ti2-) equipped with a LU-N4 laser unit with 488 and 405 nm lasers and a Fluor 60× ultraviolet-corrected objective lens (NA 1.4) and a C2+scanner enclosed in an incubation chamber at 37 °C and 5% CO2. Photoactivation was performed with a 405 nm laser using the microscope software (NIS-Elements version AR 5.02.03). The following steps were performed in a photoactivation experiment. A transfected cell with a suitable process (minimum length 30 μm) was selected in the field of view (50 μm × 50 μm) and a preactivation image was saved at 488 nm excitation. The scan window was reduced to a 6-μm diameter activation spot (corresponding to 130 pixels), and photoactivation was performed in the center of the neurite using the 405 nm blue diode (laser intensity 1.0%; corresponding to an output of 30 μW) with two scans at a pixel dwell time of 4.08 μs (corresponding to a total activation time at the spot of 1.1 ms). The scan window was enlarged to the initial size, and the first scan was performed after 1 s with the 488 nm laser at the lowest practical laser intensity. Subsequent images were acquired at a rate of 1 frame/s. 112 images with a resolution of 256 × 256 pixels were collected per activated neurite. […] Effective diffusion constants were determined by fitting the fluorescence decay data from the photoactivation experiments using a one-dimensional diffusion model function for FDAP according to. All data sets were tested for normality using the D’Agostino-Pearson and Shapiro-Wilk tests. Statistical outliers were identified using the ROUT method. Equality was assessed using a F-test to compare variances. To compare different concentrations, statistically significant differences from control were determined by a one-way ANOVA with Dunnett’s post hoc test. […]

## CC(=O)OC1C(=O)C2(C)C(OC(=O)CCCCC(=O)OC3CCc4ccccc43)CC3OCC3(OC(C)=O)C2C(OC(=O)c2ccccc2)C2(O)CC(OC(=O)C(O)C(NC(=O)c3ccccc3)c3ccccc3)C(C)=C1C2(C)C (stereo not drawn) [1a, 7-O-(6″-O-(2‴,3‴-Dihydroinden-1‴-yl)hexanedioyl) Paclitaxel]
PC12 cells, 20 h treatment
  effect on Tau's effective diffusion constant (D eff) / Tau-MT interaction: increasing Tau’s D eff

## COc1ccc2c(c1)CC(NC(=O)CCCCCCCC(=O)OC1CC3OCC3(OC(C)=O)C3C(OC(=O)c4ccccc4)C4(O)CC(OC(=O)C(O)C(NC(=O)c5ccccc5)c5ccccc5)C(C)=C(C(OC(C)=O)C(=O)C13C)C4(C)C)CC2 [1b, 7-O-((S)-9″-(7‴-Methoxy-1‴,2‴,3‴,4‴-tetrahydronaphthalen-2‴-yl)amino) −9″-oxononanoyl) Paclitaxel]
PC12 cells, 20 h treatment
  effect on Tau's effective diffusion constant (D eff) / Tau-MT interaction: did not significantly alter Tau-MT interactions

## CC(=O)O[C@H]1C(=O)[C@@]2(C)[C@H]([C@H](OC(=O)c3ccccc3)[C@]3(O)C[C@H](OC(=O)[C@H](O)[C@@H](NC(=O)c4ccccc4)c4ccccc4)C(C)=C1C3(C)C)[C@]1(OC(C)=O)CO[C@@H]1C[C@@H]2O [PTX, Paclitaxel]
20 nM PTX (control 7.5%)
  unbound Tau population: 4.4%
20 nM PTX vs control
  decrease in the unbound Tau population: ~40%
PC12 cells, 20 h treatment
  concentration with notable reduction of Tau's D eff: 5 nM
  effect on Tau's effective diffusion constant (D eff) / Tau-MT interaction: significantly reduced Tau’s D eff
